Reference: patent US10233179B2, “Thiazoles and uses thereof” (AbbVie Inc., priority 2013, dated 2019)

Columns and labels:
HEp-2 cells = assay: Cytotoxicity assay (MTT) in parallel with the antiviral assay; format: cell-based
Method: HEp-2 cells and RSV (Group A, Long Strain) were obtained from the American Type Culture Collection (Manassas, Va.). Cytotoxicity of the compounds was determined in experiments done in parallel with the antiviral assays. To do this, 100 μL of assay medium was added to the wells of HEp-2 cells pretreated with 100 μL serially diluted compounds as described above. After 4 days of incubation, the viability of the cells was determined by the MTT assay in the same way as detailed in the “Antiviral Assay” method. Results were expressed as 50% toxicity dose (TD50) values. Compounds were tested to determine both their antiviral and toxicity to determine their therapeutic window. Determination of the EC50 and TD50 of these active compounds were repeated one additional time to confirm the window.

[1] = system: RSV (Group A, Long Strain); assay: Antiviral cytopathic effect (CPE) protection assay, MTT readout; format: cell-based; conditions: human respiratory syncytial virus, 96 h; HEp-2 cells, 0.2 MOI RSV, 4 days incubation, protection from CPE by MTT
Method: HEp-2 cells and RSV (Group A, Long Strain) were obtained from the American Type Culture Collection (Manassas, Va.).
A cytopathic effect (CPE) protection assay was performed to determine the ability of a compound to protect the cells from viral infection and thus the CPE induced by viral infection. 96-Well plates were first seeded with 3×10^3 HEp-2 cells per well in Dulbecco's modified Eagle's medium (DMEM) containing 10% fetal bovine serum (FBS). One day after the cells were seeded, they were preincubated with serial dilutions of compounds prepared in 100 μL assay medium (DMEM mixed with F12 medium at a 1:1 ratio, supplemented with 2% FBS and 1 mM sodium pyruvate) for 1 hour at 37° C. 100 μL of assay medium containing 0.2 multiplicity of infection (MOI) of RSV was then added to each well of cells. In addition to wells containing infected cells incubated with compounds, each plate also contained replicates of two kinds of controls: (1) Virus control contained cells infected with 0.2 MOI of RSV in assay medium, (2) Uninfected cell control contained cells incubated with assay medium only. After 4 days of incubation at 37° C., the viability of cells was assessed using MTT (Thiazolyl blue tetrazolium bromide, Sigma). A stock solution of MTT, at a concentration of 4 mg/mL in phosphate-buffered saline, was added to all wells at 25 μL per well. Plates were further incubated for 4 hours, and each well was then treated with 50 μL of a solution containing 20% sodium dodecyl sulfate (SDS) and 0.02 N HCl. After an overnight incubation, the plates were measured on a BioTek® microtiter plate reader at wavelengths of 570 nm and 650 nm. The MTT detection is based on the fact that viable (uninfected) cells can reduce the tetrazolium salts into colored formazan products, which can then be quantitated by spectrometry. Based on the spectrometric absorbance of each sample, the percent of protection from CPE, which is an indicator of protection from viral infection, can be calculated for each compound and the 50% effective concentrations (EC50) can be calculated using a nonlinear regression curve fitting equation provided by the GraphPad Prism® 4 software.
Compounds were tested to determine both their antiviral and toxicity to determine their therapeutic window. Determination of the EC50 and TD50 of these active compounds were repeated one additional time to confirm the window.

[2] = uninfected HEp-2 cells, 4 days incubation, MTT viability

| Structure (SMILES) | EC50 [1] | MTT TD50 (HEp-2 cells; [2]) | MTT TD50 (HEp-2 cells; human, 4 days) |
| --- | --- | --- | --- |
| c1cncc(C2(CN(Cc3cccn3-c3nncs3)Cc3cccn3-c3nncs3)CC2)c1 [Example 26, 1-[1-(pyridin-3-yl)cyclopropyl]-N,N-bis{[1-(1,3,4-thiadiazol-2-yl)-1H-pyrrol-2-yl]methyl}methanamine] | 1100 nM | >100 µM |  |
| c1ccc(C2(CCN(Cc3cccn3-c3nccs3)Cc3cccn3-c3nccs3)CC2)nc1 [Example 51, 2-[1-(pyridin-2-yl)cyclopropyl]-N,N-bis{[1-(1,3-thiazol-2-yl)-1H-pyrrol-2-yl]methyl}ethanamine] | 45 nM |  | 6.2 µM |
| c1cc(CN(CCC2(c3ccncc3)CC2)Cc2cccn2-c2nncs2)n(-c2nncs2)c1 [Example 27, 2-[1-(pyridin-4-yl)cyclopropyl]-N,N-bis{[1-(1,3,4-thiadiazol-2-yl)-1H-pyrrol-2-yl]methyl}ethanamine] | 810 nM |  | >32 µM |
| Clc1cccc(Cl)c1CN(Cc1cccn1-c1nccs1)Cc1cccn1-c1nccs1 [Example 36, 1-(2,6-dichlorophenyl)-N,N-bis{[1-(1,3-thiazol-2-yl)-1H-pyrrol-2-yl]methyl}methanamine] | 33 nM | 24 µM |  |
| c1ccc(CN(Cc2cccn2-c2nccs2)Cc2cccn2-c2nccs2)cc1 [Example 31, 1-phenyl-N,N-bis{[1-(1,3-thiazol-2-yl)-1H-pyrrol-2-yl]methyl}methanamine] | 110 nM | 5.4 µM |  |
| COc1ccc(CN(Cc2cccn2-c2nncs2)Cc2cccn2-c2nncs2)c(OC)c1 [Example 8, 1-(2,4-dimethoxyphenyl)-N,N-bis{[1-(1,3,4-thiadiazol-2-yl)-1H-pyrrol-2-yl]methyl}methanamine] | 240 nM | 22 µM |  |
| C[C@H](c1ccccc1Cl)N(Cc1cccn1-c1nccs1)Cc1cccn1-c1nccs1 [Example 48, (1R)-1-(2-chlorophenyl)-N,N-bis{[1-(1,3-thiazol-2-yl)-1H-pyrrol-2-yl]methyl}ethanamine] | 110 nM | 6.7 µM |  |
| Cc1cc(N(Cc2cccn2-c2nncs2)Cc2cccn2-c2nncs2)n(-c2ccc(F)cc2)n1 [Example 43, 1-(4-fluorophenyl)-3-methyl-N,N-bis{[1-(1,3,4-thiadiazol-2-yl)-1H-pyrrol-2-yl]methyl}-1H-pyrazol-5-amine] | > 32000 nM | >32 µM |  |
| Cc1ccccc1CN(Cc1cccn1-c1nccs1)Cc1cccn1-c1nccs1 [Example 37, 1-(2-methylphenyl)-N,N-bis{[1-(1,3-thiazol-2-yl)-1H-pyrrol-2-yl]methyl}methanamine] | 33 nM | 7.1 µM |  |
| COc1ccccc1CN(Cc1cccn1-c1nccs1)C(C)c1cnn(-c2cccc(F)c2)c1C (stereo not drawn) [Example 4, 1-[1-(3-fluorophenyl)-5-methyl-1H-pyrazol-4-yl]-N-(2-methoxybenzyl)-N-{[1-(1,3-thiazol-2-yl)-1H-pyrrol-2-yl]methyl}ethanamine] | > 480 nM | 0.48 µM |  |
| Cc1cc(N(Cc2cccn2-c2nccs2)Cc2cccn2-c2nccs2)n(-c2ccccc2)n1 [Example 35, 3-methyl-1-phenyl-N,N-bis{[1-(1,3-thiazol-2-yl)-1H-pyrrol-2-yl]methyl}-1H-pyrazol-5-amine] | 47 nM | >32 µM |  |
| FC(F)(F)c1ccc(CN(Cc2cccn2-c2nccs2)Cc2cccn2-c2nccs2)cc1 [Example 34, 1-[1-(1,3-thiazol-2-yl)-1H-pyrrol-2-yl]-N-{[1-(1,3-thiazol-2-yl)-1H-pyrrol-2-yl]methyl}-N-[4-(trifluoromethyl)benzyl]methanamine] | 3400 nM | 34 µM |  |
| N#Cc1ccc(CN(Cc2cccn2-c2nccs2)Cc2cccn2-c2nccs2)cc1 [Example 45, 4-[(bis{[1-(1,3-thiazol-2-yl)-1H-pyrrol-2-yl]methyl}amino)methyl]benzonitrile] | 960 nM | >32 µM |  |
| CC(Cc1cccs1)N(Cc1cccn1-c1nncs1)Cc1cccn1-c1nncs1 (stereo not drawn) [Example 25, N,N-bis{[1-(1,3,4-thiadiazol-2-yl)-1H-pyrrol-2-yl]methyl}-1-(thiophen-2-yl)propan-2-amine] | 7500 nM |  | 55 µM |
| c1ccc(N(Cc2cccn2-c2nncs2)Cc2cccn2-c2nncs2)cc1 [Example 22, N,N-bis{[1-(1,3,4-thiadiazol-2-yl)-1H-pyrrol-2-yl]methyl}aniline] | 28000 nM | >32 µM |  |

Now from value to compound, other results behind:

| EC50 [1] | Structure (SMILES) | MTT TD50 (HEp-2 cells; [2]) | MTT TD50 (HEp-2 cells; human, 4 days) |
| --- | --- | --- | --- |
| 14000 nM | C[C@H](c1ccc(F)cc1)N(Cc1cccn1-c1nncs1)Cc1cccn1-c1nncs1 [Example 13, (1R)-1-(4-fluorophenyl)-N,N-bis{[1-(1,3,4-thiadiazol-2-yl)-1H-pyrrol-2-yl]methyl}ethanamine] | 93 µM |  |
| 310 nM | FC1(F)CCC(CN(Cc2cccn2-c2nccs2)Cc2cccn2-c2nccs2)CC1 [Example 57, 1-(4,4-difluorocyclohexyl)-N,N-bis{[1-(1,3-thiazol-2-yl)-1H-pyrrol-2-yl]methyl}methanamine] | 20 µM |  |
| > 570 nM | Cc1cccc(C)c1-n1ccc(CN(Cc2cccn2-c2nccs2)C(C)c2cnn(-c3cccc(F)c3)c2C)c1 (stereo not drawn) [Example 6, N-{[1-(2,6-dimethylphenyl)-1H-pyrrol-3-yl]methyl}-1-[1-(3-fluorophenyl)-5-methyl-1H-pyrazol-4-yl]-N-{[1-(1,3-thiazol-2-yl)-1H-pyrrol-2-yl]methyl}ethanamine] | 0.57 µM |  |
| > 3000 nM | C[C@H](c1ccc(F)cc1)N(Cc1cccn1-c1nccs1)Cc1cccn1-c1nccs1 [Example 62, (1R)-1-(4-fluorophenyl)-N,N-bis{[1-(1,3-thiazol-2-yl)-1H-pyrrol-2-yl]methyl}ethanamine] | 3.0 µM |  |
| > 110 nM | Cc1c(C(C)N(Cc2ccc(Cl)cc2-c2ccnc(C(F)(F)F)n2)Cc2cccn2-c2nccs2)cnn1-c1cccc(F)c1 (stereo not drawn) [Example 5, N-{4-chloro-2-[2-(trifluoromethyl)pyrimidin-4-yl]benzyl}-1-[1-(3-fluorophenyl)-5-methyl-1H-pyrazol-4-yl]-N-{[1-(1,3-thiazol-2-yl)-1H-pyrrol-2-yl]methyl}ethanamine] | 0.11 µM |  |
| 100 nM | c1cc(CN(Cc2cccn2-c2nccs2)C2CCCCC2)n(-c2nccs2)c1 [Example 52, N,N-bis{[1-(1,3-thiazol-2-yl)-1H-pyrrol-2-yl]methyl}cyclohexanamine] | 7.2 µM |  |
| 3400 nM | CC(C)CN(Cc1cccn1-c1nccs1)Cc1cccn1-c1nccs1 [Example 39, 2-methyl-N,N-bis{[1-(1,3-thiazol-2-yl)-1H-pyrrol-2-yl]methyl}propan-1-amine] | 8.3 µM |  |
| 260 nM | c1coc(CN(Cc2cccn2-c2nccs2)Cc2cccn2-c2nccs2)c1 [Example 63, 1-(furan-2-yl)-N,N-bis{[1-(1,3-thiazol-2-yl)-1H-pyrrol-2-yl]methyl}methanamine] | 20 µM |  |
| 90 nM | c1cncc(C2(CN(Cc3cccn3-c3nccs3)Cc3cccn3-c3nccs3)CC2)c1 [Example 65, 1-[1-(pyridin-3-yl)cyclopropyl]-N,N-bis{[1-(1,3-thiazol-2-yl)-1H-pyrrol-2-yl]methyl}methanamine] | 25 µM |  |
| 410 nM | c1cc(CN(Cc2cccn2-c2nccs2)CC2C[C@H]3CC[C@@H]2C3)n(-c2nccs2)c1 (stereo partly drawn) [Example 32, 1-[(1R,4S)-bicyclo[2.2.1]hept-2-yl]-N,N-bis{[1-(1,3-thiazol-2-yl)-1H-pyrrol-2-yl]methyl}methanamine] | 4.1 µM |  |
| 45 nM | C[C@@H](c1ccccc1Cl)N(Cc1cccn1-c1nccs1)Cc1cccn1-c1nccs1 [Example 49, (1S)-1-(2-chlorophenyl)-N,N-bis{[1-(1,3-thiazol-2-yl)-1H-pyrrol-2-yl]methyl}ethanamine] | 4.3 µM |  |
| 310 nM | Clc1cnc(CN(Cc2cccn2-c2nccs2)Cc2cccn2-c2nccs2)c(Cl)c1 [Example 38, 1-(3,5-dichloropyridin-2-yl)-N,N-bis{[1-(1,3-thiazol-2-yl)-1H-pyrrol-2-yl]methyl}methanamine] | 11 µM |  |
